The text below walks through data of ChEMBL document CHEMBL1128117, “Dibenzobicyclo[2.2.2.]octane angiotensin II receptor antagonists” (Bioorg Med Chem Lett, 1995).

What is called IC50 is the midpoint of a concentration-inhibition curve.

The target of one test is T1, Angiotensin II receptor (Homo sapiens, UniProt P30556+P50052).
T1 sequence (P30556 whole entry): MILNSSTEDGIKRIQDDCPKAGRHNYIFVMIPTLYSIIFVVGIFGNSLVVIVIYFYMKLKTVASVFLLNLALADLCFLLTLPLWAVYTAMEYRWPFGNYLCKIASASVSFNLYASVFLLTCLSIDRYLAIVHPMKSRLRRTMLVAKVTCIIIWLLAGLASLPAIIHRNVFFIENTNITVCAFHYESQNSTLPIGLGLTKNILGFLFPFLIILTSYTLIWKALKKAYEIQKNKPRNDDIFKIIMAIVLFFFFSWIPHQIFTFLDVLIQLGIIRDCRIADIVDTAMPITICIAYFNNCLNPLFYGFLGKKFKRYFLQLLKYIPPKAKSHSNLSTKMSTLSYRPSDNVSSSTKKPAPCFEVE
T1 sequence (P50052 whole entry): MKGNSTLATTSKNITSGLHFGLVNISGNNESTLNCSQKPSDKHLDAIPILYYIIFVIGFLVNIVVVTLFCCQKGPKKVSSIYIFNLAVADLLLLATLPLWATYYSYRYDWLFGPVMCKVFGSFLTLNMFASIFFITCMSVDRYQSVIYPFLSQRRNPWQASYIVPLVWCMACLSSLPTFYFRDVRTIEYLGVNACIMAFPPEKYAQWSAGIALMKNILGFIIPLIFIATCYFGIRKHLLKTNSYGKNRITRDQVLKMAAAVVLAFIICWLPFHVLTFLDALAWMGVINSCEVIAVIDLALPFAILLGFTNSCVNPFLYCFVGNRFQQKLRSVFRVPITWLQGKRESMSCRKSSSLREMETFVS
The test is described as follows: Inhibitory activity against Angiotensin II receptor. The class given is protein assay.
With `CCCCc1nc(Sc2ccccc2)c(C=O)n1Cc1ccc2c(c1)C1c3ccccc3C2C(c2nn[nH]n2)C1c1nn[nH]n1` (stereo not drawn), the IC50 came out at 460 nM.
The same measure, in the same setting: the same measure for `CCCCc1nc(Cl)c(C=O)n1Cc1ccc2c(c1)C(O)(C(=O)O)c1ccccc1-2` (stereo not drawn): over 10000 nM; for `CCCCc1nc(Cl)c(C=O)n1Cc1ccc2c(c1)C(C(=O)O)c1ccccc1-2` (stereo not drawn): 3600 nM; for `CCCCc1nc(Cl)c(C=O)n1Cc1ccc2c(c1)C1c3ccccc3C2C(c2nn[nH]n2)C1c1nn[nH]n1` (stereo not drawn): 90 nM.
The same measure, in the same setting: the same measure for `CCCCc1nc(Cl)c(C=O)n1Cc1ccc2c(c1)C(Cc1nn[nH]n1)c1ccccc1-2` (stereo not drawn): 5000 nM.
On the same count and under the same terms, for `CCCCc1nc(Cl)c(C=O)n1Cc1ccc2c(c1)C1c3ccccc3C2C(C(=O)O)C1C(=O)O` (single isomer, unassigned) the value was 320 nM; for `CCCCc1nc(Cl)c(C=O)n1Cc1ccc2c(c1)C1c3ccccc3C2C(C(=O)O)C1C(=O)O` (stereo in doubt), 1100 nM.
Turning to `CCCCc1nc(Cl)c(C=O)n1Cc1ccc2c(c1)C1c3ccccc3C2C(C(=O)O)C1C(=O)O` (stereo in doubt; 3), the IC50 was 1100 nM.
`CCCCc1nc(Cl)c(C=O)n1Cc1ccc2c(c1)C1c3ccccc3C2C(C(=O)O)C1C(=O)O` (stereo in doubt; 5): the IC50 came out at 220 nM.

The target of another test is T1, Angiotensin II receptor. The test is described as follows: Inhibitory activity against Angiotensin II receptor was determined. The class given is protein assay.
`CCCCc1nc(Cl)c(COC)n1Cc1ccc(N2C(=O)C3(C)CC(C)(C(=O)O)CC(C)(C3)C2=O)cc1` (stereo not drawn) had an IC50 of over 10000 nM.

A further test relates to Rattus norvegicus. The test is described as follows: Dose required to lower the blood pressure by 30 mm Hg on intravenous administration in the renal hypertensive rat was determined. The class given is functional.
On to `CCCCc1nc(Cl)c(CO)n1Cc1ccc(-c2ccccc2-c2nnn[nH]2)cc1` [LOSARTAN], for which the ED30 worked out at 0.8 mg/kg.

In the next test the test system is Rattus norvegicus. The test is described as follows: Dose required to lower the blood pressure by 30 mm Hg on intravenous administration in the renal hypertensive rat; orally inactive. It counts as functional.
As for `CCCCc1nc(Sc2ccccc2)c(C=O)n1Cc1ccc2c(c1)C1c3ccccc3C2C(c2nn[nH]n2)C1c1nn[nH]n1` (stereo not drawn), the ED30 worked out at 0.2 mg/kg.
The compound `CCCCc1nc(Cl)c(C=O)n1Cc1ccc2c(c1)C1c3ccccc3C2C(c2nn[nH]n2)C1c1nn[nH]n1` (stereo not drawn) returned an ED30 of 0.115 mg/kg.
